Assay results published in article PMC6225478, “Natural Scaffolds with Multi-Target Activity for the Potential Treatment of Alzheimer’s Disease” (Molecules : A Journal of Synthetic Chemistry and Natural …, 2018).
Values joined by “and” are separate entries in the source; they are usually repeats but may differ in a detail not shown here. Identical values can stand only once. Like-named read-outs stand apart in the source and are kept apart here.

Assays:
BChE = test system: BChE; set-up: method as in PMID 28286309; details: at 100 μg/mL; cited from earlier work
[1] = Antioxidant activity (DPPH radical scavenging assay); details: DPPH 100 µM in methanol, 30 min
Procedure: The DPPH assay is routinely practiced for the assessment of the free radical scavenging potential of an antioxidant molecule.
The DPPH radical scavenging assay was performed in 96-well microplates according to the method reported by Blois with some modifications.
A freshly prepared solution of DPPH in methanol (100 µM final concentration) was added to test compounds methanolic solution. The mixtures were shaken vigorously and left to stand in the dark for 30 min at room temperature. Then absorbance was read at 520 nm using a spectrophotometric plate reader (Victor 3 Perkin-Elmer).
The antioxidant activity was determined as the RSA% (radical scavenging activity) and calculated using the following equation: RSA% = 100 × [(Ao − Ai)/Ao] where Ao and Ai are the DPPH absorbance in the absence or in the presence of antioxidants, respectively. Different sample concentrations were used in order to obtain anti-radical curves for calculating the EC50 values. Anti-radical curves were plotted referring to log concentration on the x-axis and their RSA% on the y-axis. The EC50 values and statistical analyses were processed using the GraphPad Prism 5 software (San Diego, CA, USA).
Values of all parameters are expressed as mean ± SEM of at least three independent measurements in triplicate.

Aβ = test system: Aβ; set-up: method as in PMID 21261647; details: read-out: Inhibitory activity of Aβ aggregation IC50; cited from earlier work
AChE [2] = test system: AChE; set-up: method as in earlier work; details: ref 40 (Ali et al.); read-out: AChEi (means ± SEMs of triplicate experiments); cited from earlier work
AChE from electric eel = biological target: T1, AChE from electric eel (Electrophorus electricus, UniProt O42275); test: biochemical
T1 construct: purchased Sigma-Aldrich, Milan, Italy
Procedure: (§1) A modified protocol of Ellman’s spectrophotometric assay [54] adapted to a 96-well plate procedure was followed as previously described [39]. Incubation samples of AChE from electric eel or BChE from equine serum (eeAChE, 463 U/mg, and esBChE, 13 U/mg, Sigma-Aldrich, Milan, Italy) were set in phosphate buffer (pH 8.0) containing 0.5 mM 5,5′-dithiobis(2-nitrobenzoic acid) (DTNB; Sigma-Aldrich, Milan, Italy) as the chromophoric reagent alone or in the presence of the inhibitor (10 μM). Incubations were carried out in clear flat-bottomed, 96-well plates (Greiner Bio-One GmbH, Frickenhausen, Germany) in duplicate. […] After incubation for 20 min at 25 °C, 0.5 mM acetyl- or butyrylthiocholine iodide (Sigma-Aldrich, Milan, Italy) were added as the substrates and AChE-catalyzed hydrolysis was followed by measuring the increase of absorbance at 412 nm for 5 min at 25 °C in a Tecan Infinite M1000 Pro multiplate reader (Tecan, Cernusco S.N., Italy). Inhibition values and IC50s were calculated with a GraphPad Prism as the mean of three independent experiments and are expressed as mean ± SEM.

BChE from equine serum = biological target: T2, BChE from equine serum (Equus caballus, UniProt P81908); test: BChE inhibition, modified Ellman's spectrophotometric assay; format: biochemical; details: for esBChEi %I (10μM): percentage of inhibition at 10 μM inhibitor, equine serum BChE
T2 construct: purchased Sigma-Aldrich, Milan, Italy; host or cells: equine serum
Procedure: as §1

Aβ1–40 = biological target: T3, Aβ1–40 (Homo sapiens, UniProt P05067); test: Inhibition of Aβ1–40 aggregation (ThT fluorescence); format: biochemical; details: Aβ1–40 30 μM; for IC50: 2 h at 25 °C, ThT fluorescence; for iAβ %I (100μM): percentage of inhibition at 100 μM inhibitor
T3 construct: diluting Aβ1–40 (EZBiolab, Carmel, IN, USA); purchased EZBiolab, Carmel, IN, USA
Procedure: The spectrofluorimetric assays measured ThT fluorescence in the presence of Aβ and were done as previously described [39]. Co-incubation samples were prepared in 96-well black, non-binding microplates (Greiner Bio-One GmbH, Frickenhausen, Germany) by diluting Aβ1–40 (EZBiolab, Carmel, IN, USA) alone or in the presence of the inhibitor to a final concentration of 30 μM and 100 μM, respectively, in PBS (pH 7.4) containing 10% DMSO and 2% 1,1,1,3,3,3-hexafluoro-2-propanol (HFIP). After 2 h of incubation at 25 °C, 25 μM ThT solution in phosphate buffer (pH 6.0) was added and fluorescence was read in a multi-plate reader Infinite M1000 Pro (Tecan, Cernusco S.N., Italy). […] Assays were run in triplicate. Values are expressed as mean ± SEM.

AChE [3] = test system: AChE; set-up: method as in PMID 20692939; details: cited from earlier work
AChE [4] = test system: AChE; set-up: method as in PMID 28286309; details: at 100 μg/mL; cited from earlier work
[5] = acetylcholinesterase from electric eel, mean ± SEM, read-out: eeAChEi IC50 (μM ± SEM)
[6] = butyrylcholinesterase from equine serum, mean ± SEM, i.a. = not active

T2 sequence (P81908 whole entry): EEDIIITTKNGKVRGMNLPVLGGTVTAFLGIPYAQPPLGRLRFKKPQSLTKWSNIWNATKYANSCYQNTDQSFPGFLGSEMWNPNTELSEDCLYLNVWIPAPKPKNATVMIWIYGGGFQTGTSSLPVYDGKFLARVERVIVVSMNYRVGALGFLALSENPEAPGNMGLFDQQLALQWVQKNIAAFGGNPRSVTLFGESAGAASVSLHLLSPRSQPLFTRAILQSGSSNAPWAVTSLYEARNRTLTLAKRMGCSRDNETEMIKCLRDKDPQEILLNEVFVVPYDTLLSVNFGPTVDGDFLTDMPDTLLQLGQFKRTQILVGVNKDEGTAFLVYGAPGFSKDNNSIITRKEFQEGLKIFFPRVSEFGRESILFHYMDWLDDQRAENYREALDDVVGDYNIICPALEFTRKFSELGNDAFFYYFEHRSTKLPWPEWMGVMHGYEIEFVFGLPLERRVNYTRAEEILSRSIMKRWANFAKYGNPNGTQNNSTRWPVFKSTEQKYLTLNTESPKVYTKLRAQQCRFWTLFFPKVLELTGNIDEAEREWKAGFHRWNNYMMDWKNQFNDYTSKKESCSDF
T1 sequence (O42275 24-633): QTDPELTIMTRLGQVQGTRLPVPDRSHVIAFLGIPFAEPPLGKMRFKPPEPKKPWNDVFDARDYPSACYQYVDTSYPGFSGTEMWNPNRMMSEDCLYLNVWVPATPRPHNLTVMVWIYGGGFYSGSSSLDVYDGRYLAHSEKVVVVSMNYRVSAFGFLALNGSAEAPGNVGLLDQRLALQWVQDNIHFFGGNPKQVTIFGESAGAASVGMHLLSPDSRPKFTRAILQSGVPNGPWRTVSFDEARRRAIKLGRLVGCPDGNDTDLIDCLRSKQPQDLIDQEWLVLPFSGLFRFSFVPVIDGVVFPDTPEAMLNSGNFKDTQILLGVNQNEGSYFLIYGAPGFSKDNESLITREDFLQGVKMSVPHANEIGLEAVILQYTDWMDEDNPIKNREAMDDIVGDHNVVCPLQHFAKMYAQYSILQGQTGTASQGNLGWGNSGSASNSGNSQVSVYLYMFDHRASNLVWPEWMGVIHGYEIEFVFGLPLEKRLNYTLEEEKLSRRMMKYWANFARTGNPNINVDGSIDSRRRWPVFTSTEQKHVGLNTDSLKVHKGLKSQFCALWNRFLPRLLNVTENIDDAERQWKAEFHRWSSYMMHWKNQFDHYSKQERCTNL
T3 sequence (P05067 672-711): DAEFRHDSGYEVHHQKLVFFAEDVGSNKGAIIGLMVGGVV

COc1ccc2c3c1O[C@H]1C[C@@H](O)C=C[C@@]31CCN(C)C2 [Galantamine]
Percentage of inhibition against BChE (BChE): 81.93 ± 2.52%

O=C(O)c1cc(O)c(O)c(O)c1 [Gallic acid, reference compound]
Antioxidant Activity EC50 (μmol/µmol of DPPH ± SEM) [1]: 0.054 ± 0.004 μmol/µmol of DPPH

ε-viniferin glucoside
IC50 (Aβ): 200 ± 300 nM

Oc1ccc(/C=C/c2cc(O)cc3c2[C@H](c2cc(O)cc(O)c2)[C@@H](c2ccc(O)c(O)c2)O3)cc1 [scirpusin A]
IC50 (Aβ): 700 ± 300 nM

O=Cc1cc2ccc(=O)oc2cc1O [6-formyl-umbelliferone]
IC50 (AChE [2]): 16.7 ± 1.62 µM

O=Cc1c(O)ccc2ccc(=O)oc12 [8-formyl-umbelliferon]
IC50 (AChE [2]): 19.1 ± 0.57 µM

C/C=C/c1cc2c(c(=O)o1)[C@@H](O)[C@@H](O)[C@H](C)O2 [Compound 2, 2-epi-Radicinol]
IC50 (AChE from electric eel; [5]): 6.86 ± 0.67 µM
esBChEi IC50 (μM ± SEM) (BChE from equine serum; [6]): i.a.
Antioxidant Activity EC50 (μmol/µmol of DPPH ± SEM) [1]: > 100 μmol/µmol of DPPH
IC50 (Aβ1–40; read-out: iAβ IC50 (μM ± SEM)): 74 ± 1 µM

COc1cc(O)c2c(c1)C[C@@H](C)OC2=O [Compound 4, 6-Methoxymellein]
IC50 (AChE from electric eel; [5]): 11.4 ± 0.8 µM
esBChEi %I (10μM) (BChE from equine serum): %I (10μM): 10 ± 3%
Antioxidant Activity EC50 (μmol/µmol of DPPH ± SEM) [1]: > 100 μmol/µmol of DPPH
IC50 (Aβ1–40; read-out: iAβ IC50 (μM ± SEM)): 98 ± 3 µM

Oc1c(I)cc(Cl)c2cccnc12 [Clioquinol, reference compound]
IC50 (AChE from electric eel; [5]): 8.12 ± 1 µM
esBChEi %I (10μM) (BChE from equine serum): %I (10μM): 10 ± 1%
Antioxidant Activity EC50 (μmol/µmol of DPPH ± SEM) [1]: 0.74 ± 0.04 μmol/µmol of DPPH
IC50 (Aβ1–40; read-out: iAβ IC50 (μM ± SEM)): 7.6 ± 0.8 µM

CC[C@H](C)[C@@H]1NC(=O)C(C(C)=O)=C1O [Compound 1, Tenuazonic acid]
IC50 (AChE from electric eel): 8.13 ± 0.08 µM
Antioxidant Activity EC50 (μmol/µmol of DPPH ± SEM) [1]: 2.6 μmol/µmol of DPPH and 2.6 ± 0.2 μmol/µmol of DPPH
IC50 (Aβ1–40; iAβ IC50 (μM ± SEM)): ~100 µM
iAβ %I (100μM) (Aβ1–40): %I (100μM): 50 ± 8

O=c1c(O)c(-c2ccc(O)c(O)c2)oc2cc(O)cc(O)c12 [Quercetin, reference compound]
IC50 (Aβ1–40; read-out: iAβ IC50 (μM ± SEM)): 0.82 ± 0.07 µM

COC(=O)/C=C/c1ncn(C)c1CC=C(C)C [Compound 6, Fungerin]
IC50 (AChE from electric eel; [5]): 86 ± 15 µM
IC50 (BChE from equine serum; butyrylcholinesterase from equine serum, mean ± SEM, i.a. = not active, read-out: esBChEi IC50 (μM ± SEM)): 1.75 ± 0.59 µM
Potency on BChE compared to that on AChE (BChE from equine serum; esBChE vs eeAChE IC50): about 50 times
Antioxidant Activity EC50 (μmol/µmol of DPPH ± SEM) [1]: >100 μmol/µmol of DPPH
iAβ %I (100μM) (Aβ1–40): %I (100μM): 33 ± 9
Activity as an AChE inhibitor (AChE [3]): medium-high micromolar range

C/C=C/c1cc2c(c(=O)o1)C(=O)[C@@H](O)[C@H](C)O2 [Compound 5, Radicinin]
IC50 (AChE from electric eel; [5]): 8.96 ± 0.97 µM
esBChEi %I (10μM) (BChE from equine serum): %I (10μM): 6 ± 1%
Antioxidant Activity EC50 (μmol/µmol of DPPH ± SEM) [1]: >100 μmol/µmol of DPPH
iAβ %I (100μM) (Aβ1–40): %I (100μM): 44 ± 3

pteryxin
Percentage of inhibition against AChE (AChE [4]): 9.30 ± 1.86%
Percentage of inhibition against BChE (BChE): 91.62 ± 1.53%

COc1c(C)c2c(c(O)c1C/C=C(\C)CCC(=O)O)C(=O)OC2 [Compound 3, Mycophenolic acid]
IC50 (AChE from electric eel; [5]): 7.84 ± 0.72 µM
esBChEi IC50 (μM ± SEM) (BChE from equine serum; [6]): i.a.
Antioxidant Activity EC50 (μmol/µmol of DPPH ± SEM) [1]: 14.7 μmol/µmol of DPPH and 14.7 ± 3.4 μmol/µmol of DPPH
iAβ %I (100μM) (Aβ1–40): %I (100μM): 38 ± 3
